Source: article doi:10.1101/2025.04.02.646353v2, “Novel dopaminergic neurotransmission in the Octopus visual system” (biorxiv, 2025)
Values belong to the compound of their own block, whether it stands above or below them.

Columns and labels:
Assay in all cases: two-electrode voltage clamp, Xenopus oocytes
[1] = system: T1, DopC1 (O. vulgaris); type: cell-based, Octopus vulgaris; conditions: agonist; ND96, -60 mV
T1 construct: full-length cDNA cloned from 1-dph O. vulgaris paralarvae, KSM vector, Xenopus oocytes; homomeric cys-loop channel; LOC number follows O. sinensis annotation

[2] = target: T2, DopC1 from Apis mellifera (Apis mellifera, UniProt A0A7M7R6H2); type: cell-based
T2 construct: gene LOC408525; full-length synthetic cDNA (GeneArt), KSM vector, Xenopus oocytes; homomeric channel
T2 sequence (A0A7M7R6H2 91-549): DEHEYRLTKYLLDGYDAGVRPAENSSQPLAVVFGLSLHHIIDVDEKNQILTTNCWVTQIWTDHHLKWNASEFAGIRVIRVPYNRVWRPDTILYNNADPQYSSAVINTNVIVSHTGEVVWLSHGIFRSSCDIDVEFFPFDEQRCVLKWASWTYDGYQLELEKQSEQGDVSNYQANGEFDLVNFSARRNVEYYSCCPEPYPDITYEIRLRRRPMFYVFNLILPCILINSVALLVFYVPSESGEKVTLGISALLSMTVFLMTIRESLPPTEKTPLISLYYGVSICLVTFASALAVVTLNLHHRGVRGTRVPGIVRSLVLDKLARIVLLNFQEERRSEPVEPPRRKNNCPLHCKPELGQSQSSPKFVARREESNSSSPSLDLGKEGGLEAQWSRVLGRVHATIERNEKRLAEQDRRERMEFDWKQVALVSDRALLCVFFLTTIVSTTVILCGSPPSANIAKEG

[3] = target: T3, DopC1 from Daphnia magna (Daphnia magna, UniProt A0A0P5YVQ3); type: cell-based; conditions: agonist; ND96, -60 mV
T3 construct: cDNA cloned from adult D. magna RNA, KSM vector, Xenopus oocytes; homomeric; LOC116927457 assigned to DopC1 by printed order only (DopC2 = LOC116923538)
T3 sequence (A0A0P5YVQ3 24-503): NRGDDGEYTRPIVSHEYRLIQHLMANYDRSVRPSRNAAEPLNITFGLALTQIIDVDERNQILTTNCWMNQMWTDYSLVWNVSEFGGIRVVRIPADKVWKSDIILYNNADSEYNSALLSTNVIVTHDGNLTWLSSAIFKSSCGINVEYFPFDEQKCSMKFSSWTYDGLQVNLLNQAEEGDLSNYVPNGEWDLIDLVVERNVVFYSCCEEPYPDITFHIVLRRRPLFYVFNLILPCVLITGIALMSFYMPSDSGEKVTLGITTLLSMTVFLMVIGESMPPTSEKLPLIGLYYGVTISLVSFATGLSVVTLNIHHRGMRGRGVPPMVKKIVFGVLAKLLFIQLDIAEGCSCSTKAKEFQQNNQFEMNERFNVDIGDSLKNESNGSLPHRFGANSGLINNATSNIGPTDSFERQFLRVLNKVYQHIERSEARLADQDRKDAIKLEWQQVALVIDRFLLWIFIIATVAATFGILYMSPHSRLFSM

[4] = target: T4, DopC2 from Daphnia magna (Daphnia magna, UniProt A0A0P6GTI1); type: cell-based; conditions: agonist; ND96, -60 mV
T4 construct: gene APZ42_017815; cDNA cloned from adult D. magna RNA, KSM vector, Xenopus oocytes; homomeric; LOC116923538 assigned to DopC2 by printed order only (DopC1 = LOC116927457)
T4 sequence (A0A0P6GTI1 36-620): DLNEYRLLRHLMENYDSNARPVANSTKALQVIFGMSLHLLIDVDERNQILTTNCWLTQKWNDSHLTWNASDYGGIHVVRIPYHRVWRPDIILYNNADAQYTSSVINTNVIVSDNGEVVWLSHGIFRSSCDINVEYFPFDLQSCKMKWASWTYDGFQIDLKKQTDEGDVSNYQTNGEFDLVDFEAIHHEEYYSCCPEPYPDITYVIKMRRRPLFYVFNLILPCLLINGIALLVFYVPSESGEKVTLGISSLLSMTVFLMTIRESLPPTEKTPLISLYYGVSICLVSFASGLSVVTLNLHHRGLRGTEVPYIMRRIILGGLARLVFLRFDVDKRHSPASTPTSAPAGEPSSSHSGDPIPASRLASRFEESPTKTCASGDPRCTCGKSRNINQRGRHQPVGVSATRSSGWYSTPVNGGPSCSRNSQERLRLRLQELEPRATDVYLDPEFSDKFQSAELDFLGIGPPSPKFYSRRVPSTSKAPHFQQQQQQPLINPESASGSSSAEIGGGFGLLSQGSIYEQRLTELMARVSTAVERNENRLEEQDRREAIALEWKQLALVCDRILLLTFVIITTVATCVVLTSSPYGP

[5] = target: T5, DopC1 from Aplysia californica (Aplysia californica, UniProt A0ABM0GHJ1); type: cell-based
T5 construct: gene LOC101853763; full-length synthetic cDNA (GeneArt), KSM vector, Xenopus oocytes; homomeric channel
T5 sequence (A0ABM0GHJ1 25-518): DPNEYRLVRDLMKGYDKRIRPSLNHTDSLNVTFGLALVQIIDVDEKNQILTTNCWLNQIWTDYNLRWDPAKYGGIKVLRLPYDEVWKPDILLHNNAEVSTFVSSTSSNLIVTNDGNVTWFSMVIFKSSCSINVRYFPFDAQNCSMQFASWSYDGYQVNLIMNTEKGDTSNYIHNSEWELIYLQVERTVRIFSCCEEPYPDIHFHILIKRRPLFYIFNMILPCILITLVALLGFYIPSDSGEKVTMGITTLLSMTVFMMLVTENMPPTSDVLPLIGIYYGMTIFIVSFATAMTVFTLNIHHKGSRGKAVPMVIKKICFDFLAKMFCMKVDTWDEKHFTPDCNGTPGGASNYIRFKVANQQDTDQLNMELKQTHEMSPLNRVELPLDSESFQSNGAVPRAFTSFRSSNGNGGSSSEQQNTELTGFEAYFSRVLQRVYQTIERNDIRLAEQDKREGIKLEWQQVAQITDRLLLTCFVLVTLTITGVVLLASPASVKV

[6] = system: T6, AChRB1 (O. vulgaris); type: cell-based, Octopus vulgaris; conditions: agonist; ND96, -60 mV
T6 construct: full-length cDNA cloned from 1-dph O. vulgaris paralarvae, KSM vector, Xenopus oocytes; expressed alone (homomeric); LOC number follows O. sinensis annotation

[7] = system: T1, DopC1 (O. vulgaris); type: cell-based, Octopus vulgaris; conditions: antagonist; against 10 µM dopamine (~EC50); ND96, -60 mV

Structure (SMILES): CNCC(O)c1ccc(O)c(O)c1 (racemic) [epinephrine]
EC50 [1]: 35 µM

Structure (SMILES): NCC(O)c1ccc(O)c(O)c1 (racemic) [norepinephrine]
EC50 [2]: 6.3 µM
EC50 [3]: 82 µM
EC50 [4]: 36 µM
EC50 [1]: 55 µM
EC50 [5]: 8.4 µM

Structure (SMILES): NCC(O)c1ccc(O)cc1 (racemic) [octopamine]
EC50 [1]: 18000 µM

EC50 [6]: 1.9 µM
Structure (SMILES): CC(=O)OCC[N+](C)(C)C [acetylcholine]

Structure (SMILES): CN1CCc2cccc3c2[C@H]1Cc1ccc(O)c(O)c1-3 [apomorphine]
IC50 [7]: 7 µM

EC50 [6]: 98 µM
Structure (SMILES): C[N+](C)(C)CCO [choline]

Structure (SMILES): NCCc1ccc(O)c(O)c1 [dopamine]
EC50 [2]: 1.7 µM
EC50 [3]: 50 µM
EC50 [4]: 4.6 µM
EC50 [1]: 7.6 µM
EC50 [5]: 3.5 µM

Structure (SMILES): NCCc1c[nH]c2ccc(O)cc12 [serotonin]
EC50 [1]: 73 µM

Structure (SMILES): NCCc1ccc(O)cc1 [tyramine]
EC50 [1]: 180 µM
